In ChEMBL document CHEMBL1142906, “Structure-activity relationships of novel piperazines as antagonists for the melanocortin-4 receptor” (Bioorg Med Chem, 2007):

Experiments:
D(2) dopamine receptor = D(2) dopamine receptor (Rattus norvegicus, UniProt P61169); assay: Displacement of [3H]raclopride from dopamine D2 receptor in rat striatal membranes; assay type: cell membranes, Membrane
Melanocortin receptor 4 = Melanocortin receptor 4 (Homo sapiens, UniProt P32245); assay: Displacement of [125I]Nle4-D-Phe7-alpha-MSH from human MC4 receptor expressed in COS1 cells; assay type: cell-based, COS-1
[1] = target: T1, Adrenergic receptor alpha-1 (Rattus norvegicus, UniProt P15823+P23944+P43140); assay: Displacement of [3H]prazosin from adrenergic alpha-1 receptor in rat cortical membranes; assay type: cell membranes, Membrane
T1 sequence (P15823 whole entry): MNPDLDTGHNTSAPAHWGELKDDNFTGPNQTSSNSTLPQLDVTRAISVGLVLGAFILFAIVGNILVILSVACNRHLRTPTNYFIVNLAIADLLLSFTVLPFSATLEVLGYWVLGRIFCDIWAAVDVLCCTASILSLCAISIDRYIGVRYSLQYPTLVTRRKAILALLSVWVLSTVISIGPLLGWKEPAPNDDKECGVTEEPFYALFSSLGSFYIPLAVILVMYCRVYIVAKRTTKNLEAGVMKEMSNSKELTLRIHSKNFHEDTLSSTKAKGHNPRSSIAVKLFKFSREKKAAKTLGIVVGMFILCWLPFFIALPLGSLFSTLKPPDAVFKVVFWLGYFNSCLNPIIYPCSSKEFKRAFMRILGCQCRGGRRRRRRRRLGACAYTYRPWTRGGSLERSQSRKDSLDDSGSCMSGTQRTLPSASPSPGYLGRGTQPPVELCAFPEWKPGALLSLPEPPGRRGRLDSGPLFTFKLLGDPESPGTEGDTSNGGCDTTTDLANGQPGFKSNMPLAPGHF
T1 sequence (P23944 whole entry): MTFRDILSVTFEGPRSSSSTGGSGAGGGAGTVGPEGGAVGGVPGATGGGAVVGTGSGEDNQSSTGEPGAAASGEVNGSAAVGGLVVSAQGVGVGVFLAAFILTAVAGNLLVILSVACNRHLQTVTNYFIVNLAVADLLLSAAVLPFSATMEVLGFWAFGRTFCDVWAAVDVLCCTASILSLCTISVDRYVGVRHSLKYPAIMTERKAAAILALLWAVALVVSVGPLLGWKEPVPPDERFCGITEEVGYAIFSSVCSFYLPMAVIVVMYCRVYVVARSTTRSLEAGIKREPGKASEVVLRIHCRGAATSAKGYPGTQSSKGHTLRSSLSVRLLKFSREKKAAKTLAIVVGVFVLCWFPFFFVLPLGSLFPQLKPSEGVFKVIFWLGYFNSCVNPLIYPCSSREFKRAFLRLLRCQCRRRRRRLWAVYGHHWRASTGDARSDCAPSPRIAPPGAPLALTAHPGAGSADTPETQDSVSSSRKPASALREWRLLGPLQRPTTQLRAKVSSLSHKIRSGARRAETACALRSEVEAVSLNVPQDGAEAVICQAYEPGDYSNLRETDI
T1 sequence (P43140 whole entry): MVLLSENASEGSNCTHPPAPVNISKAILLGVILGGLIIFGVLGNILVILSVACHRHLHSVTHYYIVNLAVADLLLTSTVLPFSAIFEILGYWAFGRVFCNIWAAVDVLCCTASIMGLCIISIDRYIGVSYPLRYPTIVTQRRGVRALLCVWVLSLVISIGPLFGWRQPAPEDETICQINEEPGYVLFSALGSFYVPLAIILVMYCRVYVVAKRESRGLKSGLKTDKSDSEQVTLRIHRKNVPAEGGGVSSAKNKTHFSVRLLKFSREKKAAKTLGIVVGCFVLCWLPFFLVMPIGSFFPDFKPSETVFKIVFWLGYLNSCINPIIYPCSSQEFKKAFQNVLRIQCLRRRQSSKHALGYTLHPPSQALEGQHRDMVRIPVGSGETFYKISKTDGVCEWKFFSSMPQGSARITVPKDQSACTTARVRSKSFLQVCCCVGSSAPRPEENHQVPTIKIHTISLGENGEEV

[2] = target: Delta-type opioid receptor (Rattus norvegicus, UniProt P33533); assay: Displacement of [3H]DPDPE from delta opiate receptor in rat brain membranes; assay type: cell membranes
[3] = target: Sodium-dependent serotonin transporter (Rattus norvegicus, UniProt P31652); assay: Displacement of [3H][…] from SET in rat cortical membranes; assay type: cell membranes, Membrane
Histamine H1 receptor = Histamine H1 receptor (Rattus norvegicus, UniProt P31390); assay: Displacement of [3H]pyrilamine from histamine H1 receptor in rat brain membranes; assay type: cell membranes
[4] = target: Norepinephrine transporter (Rattus norvegicus, UniProt Q9WTR4); assay: Displacement of [3H]nisoxetine from NET in rat cortical membranes; assay type: cell membranes, Membrane
Mu-type opioid receptor = Mu-type opioid receptor (Rattus norvegicus, UniProt P33535); assay: Displacement of [3H]DAMGO from mu opiate receptor in rat brain membranes; assay type: cell membranes
Sequence of Mu-type opioid receptor (P33535 whole entry): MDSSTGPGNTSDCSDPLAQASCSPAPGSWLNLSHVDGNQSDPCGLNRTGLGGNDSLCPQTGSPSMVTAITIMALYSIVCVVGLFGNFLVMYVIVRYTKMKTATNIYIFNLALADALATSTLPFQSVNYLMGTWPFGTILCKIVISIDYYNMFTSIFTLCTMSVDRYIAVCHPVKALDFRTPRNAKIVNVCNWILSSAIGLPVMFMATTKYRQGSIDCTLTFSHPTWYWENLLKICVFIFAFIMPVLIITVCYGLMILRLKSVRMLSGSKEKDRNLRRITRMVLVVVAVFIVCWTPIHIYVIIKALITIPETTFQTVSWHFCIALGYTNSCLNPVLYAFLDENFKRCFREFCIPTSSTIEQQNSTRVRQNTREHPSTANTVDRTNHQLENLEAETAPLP

Sequence of Sodium-dependent serotonin transporter (P31652 whole entry): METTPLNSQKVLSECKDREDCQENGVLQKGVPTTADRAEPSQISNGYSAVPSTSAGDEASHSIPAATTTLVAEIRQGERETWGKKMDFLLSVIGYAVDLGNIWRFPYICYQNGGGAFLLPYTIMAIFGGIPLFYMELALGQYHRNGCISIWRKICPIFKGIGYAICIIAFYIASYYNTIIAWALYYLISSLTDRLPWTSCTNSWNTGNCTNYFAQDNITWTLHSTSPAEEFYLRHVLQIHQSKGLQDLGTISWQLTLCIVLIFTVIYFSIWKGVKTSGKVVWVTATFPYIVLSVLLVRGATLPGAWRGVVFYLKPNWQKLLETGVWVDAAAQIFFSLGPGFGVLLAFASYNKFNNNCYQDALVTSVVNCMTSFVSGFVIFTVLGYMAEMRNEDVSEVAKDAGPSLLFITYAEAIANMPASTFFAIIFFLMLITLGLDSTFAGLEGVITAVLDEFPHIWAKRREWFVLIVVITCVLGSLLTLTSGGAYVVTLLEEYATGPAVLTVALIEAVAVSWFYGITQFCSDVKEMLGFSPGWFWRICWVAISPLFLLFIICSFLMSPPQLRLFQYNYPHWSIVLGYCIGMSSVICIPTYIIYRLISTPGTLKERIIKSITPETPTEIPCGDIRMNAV
Sequence of Histamine H1 receptor (P31390 whole entry): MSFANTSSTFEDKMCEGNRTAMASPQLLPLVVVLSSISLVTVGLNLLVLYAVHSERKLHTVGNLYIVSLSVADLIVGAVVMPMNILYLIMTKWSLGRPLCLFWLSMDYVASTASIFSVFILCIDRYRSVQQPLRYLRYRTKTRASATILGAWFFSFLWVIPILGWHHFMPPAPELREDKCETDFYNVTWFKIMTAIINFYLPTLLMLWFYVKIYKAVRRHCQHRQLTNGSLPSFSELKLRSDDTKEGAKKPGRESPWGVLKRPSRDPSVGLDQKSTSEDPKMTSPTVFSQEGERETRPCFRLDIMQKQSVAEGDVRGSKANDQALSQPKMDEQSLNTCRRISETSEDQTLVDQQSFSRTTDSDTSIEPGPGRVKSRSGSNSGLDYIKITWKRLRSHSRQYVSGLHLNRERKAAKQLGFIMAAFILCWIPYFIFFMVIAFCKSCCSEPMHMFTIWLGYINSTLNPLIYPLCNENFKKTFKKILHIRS
Sequence of Delta-type opioid receptor (P33533 whole entry): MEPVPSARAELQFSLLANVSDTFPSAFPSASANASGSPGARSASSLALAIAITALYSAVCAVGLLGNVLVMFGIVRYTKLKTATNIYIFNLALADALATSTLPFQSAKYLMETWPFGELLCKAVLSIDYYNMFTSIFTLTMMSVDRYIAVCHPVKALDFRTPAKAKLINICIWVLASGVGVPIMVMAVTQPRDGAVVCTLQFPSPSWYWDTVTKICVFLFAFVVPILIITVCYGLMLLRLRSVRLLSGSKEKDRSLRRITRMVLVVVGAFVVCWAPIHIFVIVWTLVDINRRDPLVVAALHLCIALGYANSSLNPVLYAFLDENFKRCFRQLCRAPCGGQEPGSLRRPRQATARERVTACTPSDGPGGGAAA
Sequence of Norepinephrine transporter (Q9WTR4 whole entry): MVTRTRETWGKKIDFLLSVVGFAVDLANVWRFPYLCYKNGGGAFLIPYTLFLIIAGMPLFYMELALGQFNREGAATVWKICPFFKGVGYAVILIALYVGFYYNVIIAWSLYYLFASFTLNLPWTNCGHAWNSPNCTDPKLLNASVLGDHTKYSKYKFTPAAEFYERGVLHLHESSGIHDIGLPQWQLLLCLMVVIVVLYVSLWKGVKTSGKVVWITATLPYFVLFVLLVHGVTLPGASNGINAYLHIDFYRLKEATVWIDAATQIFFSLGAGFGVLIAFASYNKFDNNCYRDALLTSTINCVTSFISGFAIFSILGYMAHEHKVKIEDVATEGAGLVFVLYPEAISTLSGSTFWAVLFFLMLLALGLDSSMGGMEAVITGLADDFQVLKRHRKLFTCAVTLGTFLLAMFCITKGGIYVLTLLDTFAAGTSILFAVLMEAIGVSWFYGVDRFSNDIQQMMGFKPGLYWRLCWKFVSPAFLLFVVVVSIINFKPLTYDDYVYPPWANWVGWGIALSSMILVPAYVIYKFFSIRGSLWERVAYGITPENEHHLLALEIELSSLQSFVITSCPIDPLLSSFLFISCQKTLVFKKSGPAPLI
Sequence of D(2) dopamine receptor (P61169 whole entry): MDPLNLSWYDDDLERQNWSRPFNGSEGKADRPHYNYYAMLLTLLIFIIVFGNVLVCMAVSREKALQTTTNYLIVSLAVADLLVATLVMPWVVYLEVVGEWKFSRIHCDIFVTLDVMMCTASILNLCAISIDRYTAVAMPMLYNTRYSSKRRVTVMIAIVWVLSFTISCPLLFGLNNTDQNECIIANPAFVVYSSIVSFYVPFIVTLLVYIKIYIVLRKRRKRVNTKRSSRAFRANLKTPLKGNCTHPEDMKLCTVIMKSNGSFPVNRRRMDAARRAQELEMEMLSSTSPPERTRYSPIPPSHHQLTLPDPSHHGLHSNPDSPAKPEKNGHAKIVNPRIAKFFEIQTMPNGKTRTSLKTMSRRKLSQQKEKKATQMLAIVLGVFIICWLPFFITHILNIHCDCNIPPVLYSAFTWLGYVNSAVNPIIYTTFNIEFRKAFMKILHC
Sequence of Melanocortin receptor 4 (P32245 whole entry): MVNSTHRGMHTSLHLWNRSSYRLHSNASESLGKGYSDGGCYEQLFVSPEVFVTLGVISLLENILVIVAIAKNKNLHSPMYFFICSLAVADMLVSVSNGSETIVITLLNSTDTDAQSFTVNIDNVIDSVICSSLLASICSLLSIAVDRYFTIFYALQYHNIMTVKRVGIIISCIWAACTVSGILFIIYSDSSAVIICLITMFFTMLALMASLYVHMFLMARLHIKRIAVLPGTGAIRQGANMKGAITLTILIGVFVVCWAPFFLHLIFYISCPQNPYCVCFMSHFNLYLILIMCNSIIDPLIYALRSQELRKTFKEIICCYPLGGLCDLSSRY

| IC50 (D(2) dopamine receptor) [nM] | IC50 (Melanocortin receptor 4) [nM] | IC50 [1] [nM] | IC50 [2] [nM] | IC50 [3] [nM] | IC50 (Histamine H1 receptor) [nM] | IC50 [4] [nM] | IC50 (Mu-type opioid receptor) [nM] | SMILES |
| --- | --- | --- | --- | --- | --- | --- | --- | --- |
| > 1000 | 23 | > 1000 | > 10000 | 3400 | > 1000 | 2830 | > 10000 | CC(C)N1CCN(C(CN2CCN(CCCc3cccc(F)c3-c3ccccc3)CC2)c2ccc(F)cc2)CC1 (racemic) |
| > 1000 | 24.3 | > 1000 | > 10000 | 4960 | > 1000 | 2400 | > 10000 | Cc1cccc(-c2ccccc2)c1CCCN1CCN(CC(c2ccc(F)cc2)N2CCN(C(C)C)CC2)CC1 (racemic) |
| 721 | 10.5 | > 1000 | > 10000 | 1340 | > 1000 | 290 | > 10000 | CC(C)N1CCN(C(CN2CCN(CCCc3ccccc3-c3ccc(F)cc3)CC2)c2ccc(F)cc2)CC1 (racemic) |
| 721 | 27.1 | > 1000 | > 10000 | 1170 | > 1000 | 369 | > 10000 | CC(C)N1CCN(C(CN2CCN(CCCc3cc(F)ccc3-c3ccccc3)CC2)c2ccc(F)cc2)CC1 (racemic) |
| > 1000 | 23.6 | > 1000 | > 10000 | 2110 | > 1000 | 226 | > 10000 | CC(C)N1CCN(C(CN2CCN(CCCc3ccccc3-c3cccc(F)c3)CC2)c2ccc(F)cc2)CC1 (racemic) |

Continued, molecule first:

| SMILES | IC50 (D(2) dopamine receptor) [nM] | IC50 (Melanocortin receptor 4) [nM] | IC50 [1] [nM] | IC50 [2] [nM] | IC50 [3] [nM] | IC50 (Histamine H1 receptor) [nM] | IC50 [4] [nM] | IC50 (Mu-type opioid receptor) [nM] |
| --- | --- | --- | --- | --- | --- | --- | --- | --- |
| CC(C)N1CCN(C(CN2CCN(CCCc3ccc(F)cc3-c3ccccc3)CC2)c2ccc(F)cc2)CC1 (racemic) | > 1000 | 33 | > 1000 | > 10000 | 1370 | > 1000 | 1850 | > 10000 |
| CC(C)N1CCN(C(CN2CCN(CCCc3c(F)cccc3-c3ccccc3)CC2)c2ccc(F)cc2)CC1 (racemic) | > 1000 | 11.7 | > 1000 | > 10000 | 1460 | > 1000 | 206 | > 10000 |
| CC(C)N1CCN(C(CN2CCN(CCCc3c(Cl)cccc3-c3ccccc3)CC2)c2ccc(F)cc2)CC1 (racemic) | > 1000 | 27.1 | > 1000 | > 10000 | 1290 | > 1000 | 1770 | > 10000 |
| CC(C)N1CCN(C(CN2CCN(CCCc3ccccc3-c3ccccc3)CC2)c2ccc(F)cc2)CC1 (racemic) | 645 | 11.2 | > 1000 | > 10000 | 3130 | > 1000 | 671 | > 10000 |
